According to patent US10550094B2, “Compounds having antioxidant activity against free radicals and anti-inflammatory activity, and corresponding pharmaceutical or cosmetic compositions for skin care” (GIULIANI S.P.A., priority 2015, dated 2020):

What was measured:
TNF-α = experiment: Anti-inflammatory activity: TNF-α gene expression by qRT-PCR in LPS-treated keratinocytes; type: cell-based, human; details: for TNF-α (relative gene expression): 10 μg/ml LPS, NCTC 2544; for Comparison vs LFS (%): TNF-α vs Control + LPS
Method: (§1) The immortalized line of human keratinocytes NCTC2544 is used (Perry V. P. et al., 1957), cultured in sterile flasks ([…]), incubated at 37° C. in a humid atmosphere at 5% CO2 in RPMI culture medium added with bovine fetal serum (FBS), 2 mm glutamine, 1% non-essential amino acids, in the presence of 1% penicillin and streptomycin. The 1:3 split is done every 2 days upon achieving the monolayer by washing with 1×PBS (phosphate buffer without Ca^2+ and Mg^2+) and detachment of cells with a trypsin-EDTA solution at 37° C. for 2 minutes. The cells were kept in culture in 25 cm^3 sterile flasks and incubated at 37° C. in a humid atmosphere at 5% CO2.
Negative control: untreated cells in RPMI medium added to 2.5% fetal bovine serum (FBS), 1% non-essential amino acids (NEAA), 1% of a penicillin and streptomycin mixture (Pen-Strep Mix), and kept in (12 well) 25 cm^2 culture plates at 37° C. and 5% CO2.
Positive control: cells in RPMI medium added to 2.5% fetal bovine serum (FBS), 1% non-essential amino acids (NEAA), 1% of a penicillin and streptomycin mixture (Pen-Strep Mix) and 10 μg/mL LPS (lipopolysaccharide) and kept in ([…]) 25 cm^2 culture plates at 37° C. and 5% CO2 (in the dark).
Study of the Anti-inflammatory Activity-NCTC 2544
The gene expression of the TNF-α inflammation marker was evaluated by relative quantitative RT-PCR (quantitative reverse transcription-polymerase chain reaction-qRT-PCR).
This assay involved three sequential steps: • extraction of total RNA; • retrotranscription in cDNA; • qRT-PCR.
Human keratinocytes NCTC 2544 were seeded in 12-well plates at the density of […] cells/well and incubated until reaching about 80% confluence.
Then, the cells were incubated for 16 and 24 hours with the compounds of the invention to be tested and the respective controls at the following concentrations: 13.5 μM and 27 μM, and admixed (in the well) with 10 μg/ml LPS.
The dilutions were prepared starting from 1000× stock in DMSO, sterile-filtered and using RPMI medium added to 2.5% fetal bovine serum (FBS), 1% non-essential amino acids (NEAA), 1% of a penicillin and streptomycin mixture (Pen-Strep Mix).
Cells kept in the culture medium alone (RPMI 2.5% FBS) were used as a negative control.
Cells in the culture medium alone (RPMI 2.5% FBS) and treated only with 10 μg/mL LPS were used as a positive control.
After incubation, the RNA was extracted. Total RNA was extracted from NCTC 2544 cells using the commercial kit Ribospin™ (GeneAllBiotechnology Co., LTD).
At the end of incubation with the active compounds of the invention, cells were washed with PBS (1×) and finally subjected to RNA extraction procedure. At the end of the extraction, using a spectrophotometer (Jenway UV/VIS MOD: 6715, BS-6715B0), concentrations were calculated in μg/mL of total RNA extracted at a wavelength of 260 nm.
For RT-PCR amplification, the TaqMan® probe (AppliedBiosystems) method was used. The following TYaqMan probe was used: Hs00174128_m1 (TNF-α). GAPDH: Hs99999905_m1 was used as control gene (housekeeping).
The data obtained were analyzed according to the method of 2-ΔΔCt and so it was possible to calculate the relative values of expression of the gene of interest, normalized compared to the housekeeping gene and calibrated on the control sample (untreated cells): ΔCt=ΔCttarget-housekeeping (control)−ΔCttarget-housekeeping (treated cells)
The 2^−ΔΔCt was calculated assuming an amplification efficiency of 100%.

[1] = test system: human keratinocytes NCTC2544; experiment: MTT assay with induced oxidative stress (H2O2); type: cell-based; details: 16 h pretreatment, then 1 mM H2O2, NCTC2544
Method: as §1
(§2) Negative control: untreated cells in RPMI medium added to 2.5% fetal bovine serum (FBS), 1% non-essential amino acids (NEAA), 1% of a penicillin and streptomycin mixture (Pen-Strep Mix), and kept in (96 well) 25 cm^2 culture plates at 37° C. and 5% CO2 (in the dark).
as §2, with “Positive” for “Negative”, “control:” for “control: untreated”, “cells treated for 2 h with 1 mM hydrogen peroxide” for “cells”
MTT with Induced Oxidative Stress-NCTC 2544
Through this method it is possible to study the protective effects of such compounds on cells then subjected to oxidative stress. The induction of oxidative stress is carried out by incubation with hydrogen peroxide, an agent inducing the production of oxidative damage in cells through the formation of ROS. Any protective effects can be determined through the evaluation of the cell viability post oxidative stress of cells pretreated/pre-exposed to the active compounds to be tested, compared to cells subjected to the same oxidative stress. A greater cell viability will correspond to a protective effect of the compounds tested.
The assay was conducted in accordance with the method described by Coda and collaborators (Coda et al., 2012), with some changes. Human keratinocytes NCTC2544 were seeded in a 96-well plate at the density of 5*10^4 cells/well and incubated at 37° C. until reaching about 80% confluence.
Then, the cells were incubated for 16 hours with the active compounds to be tested and the respective controls at the following concentrations: 13.5 μM and 27 μM. The dilutions were prepared starting from 1000× stock in DMSO, sterile-filtered and using RPMI medium added to 2.5% fetal bovine serum (FBS), 1% non-essential amino acids (NEAA), 1% of a penicillin and streptomycin mixture (Pen-Strep Mix). Cells treated with H2O2 1 mM were used as a positive control; cells kept in culture medium alone (RPMI 2.5% FCS) were used instead as a negative control. After 16 hours of pretreatment, the cells were washed with PBS 1× and incubated for 90 minutes with a […] H2O2 solution (Sigma-Aldrich, St. Louis, Mo., USA) in serum-free medium, in the dark, at 37° C. and 5% CO2.
After the step of induction of the oxidative stress, the cell viability of the samples of the above compounds of the invention was evaluated in accordance with the method described by Mosmann T. Rapid colorimetric assay for cellular growth and survival: application to proliferation and cytotoxicity assays. J Immunol Methods. 1983 Dec. 16; 65(1-2):55-63.
The data were expressed as percentage of cell viability compared with control cells (ctr) not stressed, according to the following formula: % cell viability/ctr=(Abs sample/Abs ctr)·100
All the assays were performed at least two times in duplicate.

Row | SMILES | TNF-α (relative gene expression) (TNF-α; 13.5 μM, 16 h) | Comparison vs LFS (%) (TNF-α; 13.5 μM, 16 h) | TNF-α (relative gene expression) (TNF-α; 13.5 μM, 24 h) | Comparison vs LFS (%) (TNF-α; 13.5 μM, 24 h) | TNF-α (relative gene expression) (TNF-α; 27 μM, 16 h) | Comparison vs LFS (%) (TNF-α; 27 μM, 16 h) | TNF-α (relative gene expression) (TNF-α; 27 μM, 24 h) | Comparison vs LFS (%) (TNF-α; 27 μM, 24 h) | anti-inflammatory activity (TNF-α), assessment in words (TNF-α; lower dose) | % protection ([1]; 13.5 μM) | % protection ([1]; 27 μM) | % protection ([1]; 27 μM, listed as tetracetyl sorbityl furfural) | anti-inflammatory activity (TNF-α), assessment in words (TNF-α; higher dose) | % protection ([1]; 13.5 μM, listed as xylitil furfural)
1 | COc1cc(C2OC(CO)C(O)C(C(O)CO)O2)ccc1O (stereo not shown) [Sorbityl vanillinal, sorbityl vanillinal] | 0.04 | 98.64% | 0.09 | 99.57% | 0.15 | 95.44% | 0.21 | 98.95% | remarkable | 11.320% | 22.766% |  |  | 
2 | CC(=O)OCC1OC(c2ccco2)OC(C(COC(C)=O)OC(C)=O)C1OC(C)=O (stereo not shown) [Tetracetyl sorbityl furfural, tetracetyl sorbityl furfural] | 0.35 | 89.06% | 5.75 | 71.78% | 0.28 | 91.18% | 0.12 | 99.39% |  | 34.385% | 49.201% | remarkable |  | 
3 | OCC(O)C1OC(c2ccccc2)OC(CO)C1O (stereo not shown) [Sorbityl benzal, sorbityl benzal] | 0.39 | 87.93% | 0.71 | 96.50% | 0.08 | 97.62% | 0.01 | 99.97% |  | 11.673% | 20.439% |  | particularly significant | 
4 | OCC1OC(c2ccco2)OC(CO)C1O (stereo not shown) [Xylitil furfural, xylitil furfural] | 0.03 | 98.96% | 0.03 | 99.85% | 0.18 | 94.37% | 0.18 | 99.10% | remarkable | 59.554% | 33.651% |  |  | remarkable
5 | O=C(OCC1OC(c2ccco2)OC(C(COC(=O)c2ccccc2)OC(=O)c2ccccc2)C1OC(=O)c1ccccc1)c1ccccc1 (stereo not shown) [Tetrabenzoyl sorbityl furfural, tetrabenzoyl sorbityl furfural] | 0.63 | 80.28% | 2.51 | 87.69% | 0.45 | 85.81% | 0.28 | 98.63% |  | 36.035% | 8.725% |  |  | 
